Assay: Particle size by laser diffractometry (Malvern Mastersizer 2000)
Type: physicochemical
Conditions: after milling 30 minutes at 350 rpm in a Retsch ball mill
Procedure: The expression “average particle diameter” relates in the context of this invention to the D50 value of the volume-average particle diameter determined by means of laser diffractometry. In particular, a Malvern Instruments Mastersizer 2000 was used to determine the diameter (wet measurement, 2,000 rpm, ultrasound 60 sec., preferably shading 4 to 13%, preferably dispersion in liquid paraffin, the evaluation using the Fraunhofer method). The average particle diameter, which is also referred to as the D50 value of the integral volume distribution, is defined in the context of this invention as the particle diameter at which 50% by volume of the particles have a smaller diameter than the diameter which corresponds to the D50 value. Similarly, 50% by volume of the particles than have a larger diameter than the D50 value. Analogously, the D10 value of the integral volume distribution is defined as the particle diameter at which 10% by volume of the particles have a smaller diameter than the diameter which corresponds to the D10 value. Accordingly, the D90 value of the integral volume distribution is defined as the particle diameter at which 90% by volume of the particles have a smaller diameter than the diameter which corresponds to the D90 value.

For COC(c1ccccc1)(c1ccccc1)[C@H](Oc1nc(C)cc(C)n1)C(=O)O [Example 3, (2S)-2-(4,6-dimethylpyrimidin-2-yl)oxy-3-methoxy-3,3-di(phenyl)propanoic acid], the “particle size d10” value was 5 μm, the “particle size d50” value was 18 μm and the “particle size d90” value was 63 μm.

— patent publication US20110189243A1, “PHARMACEUTICAL FORMULATION FOR LOWERING PULMONARY BLOOD PRESSURE” (Ratiopharm GMBH, priority 2008, published 2011)
